Test results as given in article PMC6660996 (Bioorganic & medicinal chemistry, 2019).
Read-outs that look alike come from different tables or passages of the source.

Key:
T. gondii (tachyzoites) [1] = details: cited from earlier work; for T. gondii growth ED50: tachyzoites, already published data, ref 47-55 (see b12)
T. cruzi (amastigotes) = assay: T. cruzi amastigote assays; format: cell-based; details: Trypanosoma cruzi
[2] = test system: hypervirulent RH strain of T. gondii; details: cited from earlier work
T. gondii (tachyzoites) [3] = assay: T. gondii tachyzoites assays; format: cell-based; details: Toxoplasma gondii, read-out: T. gondii cells ED50, tachyzoites; Table 3
[4] = read-out: T. cruzi cells ED50, amastigotes, Table 3

Compound	T. gondii growth ED50 (T. gondii (tachyzoites) [1])	IC50 (T. cruzi (amastigotes); [4])	other results
CCCCCCCCCCCCNCC(P(=O)(O)O)P(=O)(O)O [Compound 14]	6.23 µM	–	–
CCCCCCCCCCSCC(P(=O)(O)O)P(=O)(O)O [Compound 17]	1.8 µM	–	–
CCCNC(P(=O)(O)O)P(=O)(O)O [Compound 21, 1-n-Propylaminomethyl-1,1-bisphosphonic acid]	–	–	IC50 (T. cruzi (amastigotes); read-out: T. cruzi cells ED50): > 10 µM
CCCCCCCCNC(P(=O)(O)O)P(=O)(O)O [Compound 26, 1-n-Octylaminomethyl-1,1-bisphosphonic acid]	–	> 10 µM	–
CCCCCCCSCC(P(=O)(O)O)P(=O)(O)O [Compound 16]	0.97 µM	–	effect in combination with statins in in vivo assays [2]: strong synergistic effect
CC1CCC(NCC(P(=O)(O)O)P(=O)(O)O)CC1 (stereo not shown) [Compound 49, 1-[(4-methylcyclohexylamino)ethyl] 1,1-bisphosphonic acid]	–	> 10 µM	–
CCCCCCCCCCCS(=O)(=O)CC(P(=O)(O)O)P(=O)(O)O [Compound 56, 1-[(n-Undecylsulfonyl)ethyl]-1,1-biphosphonic acid]	–	–	IC50 (T. gondii (tachyzoites) [3]): 0.53 µM
CCCCCCNC(P(=O)(O)O)P(=O)(O)O [Compound 24, 1-n-Hexylaminomethyl-1,1-bisphosphonic acid]	–	> 10 µM	–
CCCCCCCCCCNC(P(=O)(O)O)P(=O)(O)O [Compound 28, 1-n-Decylaminomethyl-1,1-bisphosphonic acid]	–	5.3 µM	–
CCCCCCCNC(P(=O)(O)O)P(=O)(O)O [Compound 25, 1-n-Heptylaminomethyl-1,1-bisphosphonic acid]	–	> 10 µM	–
CCCCCCCCNCC(O)(P(=O)(O)O)P(=O)(O)O [Compound 15]	2.0 µM	–	–
O=P(O)(O)C(CNC1CCCCCC1)P(=O)(O)O [Compound 48, 1-[(Cycloheptylamino)ethyl] 1,1-bisphosphonic acid]	–	> 10 µM	–
CCCCCCCCCC(F)(P(=O)(O)O)P(=O)(O)O [Compound 11]	> 10.0 µM	–	–
CCCCCCNCC(P(=O)(O)O)P(=O)(O)O [Compound 12]	9.4 µM	–	–
CCCCCCCCCNC(P(=O)(O)O)P(=O)(O)O [Compound 27, 1-n-Nonylaminomethyl-1,1-bisphosphonic acid]	–	> 10 µM	–
O=P(O)(O)C(NC1CCCCC1)P(=O)(O)O [Compound 31, (Cyclohexylamino)methyl-1,1-bisphosphonic acid]	–	> 10 µM	–
CCCCCCCNCC(P(=O)(O)O)P(=O)(O)O [Compound 13]	> 50.0 µM	–	–
O=P(O)(O)C(NC1CCCCCC1)P(=O)(O)O [Compound 32, (Cycloheptylamino)methyl-1,1-bisphosphonic acid]	–	> 10 µM	–
O=P(O)(O)C(NC1CCCC1)P(=O)(O)O [Compound 30, (Cyclopentylamino)methyl-1,1-bisphosphonic acid]	–	> 10 µM	–
CCCCCCCCC(F)(P(=O)(O)O)P(=O)(O)O [Compound 10]	2.67 µM	–	–
O=P(O)(O)C(N1CCCCC1)P(=O)(O)O [Compound 33, (Piperidin-1-yl)methyl-1,1-bisphosphonic acid]	–	> 10 µM	–
CCCCCCCCCCS(=O)(=O)CC(P(=O)(O)O)P(=O)(O)O [Compound 18]	0.11 µM	–	in vitro activity against T. gondii ED50 (T. gondii (tachyzoites) [1]; tachyzoites proliferation): 0.1 µM
CCCCCNC(P(=O)(O)O)P(=O)(O)O [Compound 23, 1-n-Pentylaminomethyl-1,1-bisphosphonic acid]	–	> 10 µM	–
O=P(O)(O)C(CNC1CCCC1)P(=O)(O)O [Compound 47, 1-[(Cyclopentylamino)ethyl] 1,1-bisphosphonic acid]	–	> 10 µM	–
CCCCCCCC[S+](C)CC(P(=O)(O)O)P(=O)(O)O.F[B-](F)(F)F (stereo not shown) [Compound 19]	7.0 µM	–	–
CCCCNC(P(=O)(O)O)P(=O)(O)O [Compound 22, 1-n-Butylaminomethyl-1,1-bisphosphonic acid]	–	–	IC50 (T. cruzi (amastigotes); read-out: T. cruzi cells ED50): > 10 µM
